# From patent publication US20240010606A1, “FUMARATE DERIVATIVES AND THEIR MEDICAL USE” (Sitryx Therapeutics Limited, priority 2020, published 2024)
# How the values were obtained:
# [1] = tested on: IL-1β; experiment: THP-1 AlphaLISA IL-1β cytokine assay; type: cell-based; settings: Homo sapiens, differentiated THP-1 cells
# How it was run: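 THP-1 cells differentiated 72 h with PMA, pre-incubated 30 min with compounds, stimulated 24 h with LPS, then 1 h with nigericin, all at 37 °C. Supernatant cytokine measured by AlphaLISA; % inhibition normalised to ±LPS controls and IC50 taken from concentration-response curves.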
# [2] = tested on: IL-6; experiment: THP-1 AlphaLISA IL-6 cytokine assay; type: cell-based; settings: Homo sapiens
# Method: Biological Example 1—THP-1 AlphaLISA IL-1β and IL-6 Cytokine Assay Measuring Inhibitory Effects on IL-1, and IL-6 Cytokine Output from THP-1s The cytokine inhibition profiles of compounds of formula (I) were determined in a differentiated THP-1 cell assay. All assays were performed in RPMI-1640 growth medium (Gibco), supplemented with 10% fetal bovine serum (FBS; Gibco), 1% penicillin-streptomycin and 1% sodium pyruvate unless specified otherwise. The IL-1β and IL-6 cytokine inhibition assays were each run in a background of differentiated THP-1 cells as described below. All reagents described were from Sigma-Aldrich unless specified otherwise. Compounds were prepared as 10 mM DMSO stocks. THP-1 cells were expanded as a suspension up to 80% confluence in appropriate growth medium. Cells were harvested, suspended, and treated with an appropriate concentration of phorbol 12-myristate 13-acetate (PMA) over a 72 hr period (37° C./5% CO2). Following 72 hrs of THP-1 cell incubation, cellular medium was removed and replaced with fresh growth media containing 1% of FBS. Working concentrations of compounds were prepared separately in 10% FBS treated growth medium and pre-incubated with the cells for 30 minutes (37° C./5% CO2). Following the 30 minute compound pre-incubation, THP-1s were treated with an appropriate concentration of LPS and the THP-1s were subsequently incubated for a 24 hr period (37° C./5% CO2). An appropriate final concentration of Nigericin was then dispensed into the THP-1 plates and incubated for 1 hour (37° C./5% CO2) before THP-1 supernatants were harvested and collected in separate polypropylene 96-well holding plates. Reagents from each of the IL-1β and IL-6 commercial kits (Perkin Elmer) were prepared and run according to the manufacturer's instructions. Subsequently, fluorescence signal detection in a microplate reader was measured (EnVision® Multilabel Reader, Perkin Elmer). Percentage inhibition was calculated per cytokine by normalizing the sample data to the high and low controls used within each plate (+/−LPS respectively). Percentage inhibition was then plotted against compound concentration and the 50% inhibitory concentration (IC50) was determined from the resultant concentration-response curve.
# [3] = tested on: NRF2; experiment: NRF2 activation assay (DiscoverX PathHunter NRF2 translocation kit, U2OS cells); type: cell-based
# How it was run: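 PathHunter U2OS cells, grown 24 h at 37 °C/5% CO2, treated 6 h with compound; NRF2 nuclear translocation read as enzyme-fragment-complementation chemiluminescence. Activation normalised to dimethyl fumarate high and untreated low controls; EC50 from concentration-response curve.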
# [4] = Hepatocyte stability assay, human; type: in vitro ADME; settings: cryopreserved hepatocytes, 10 μM compound
# How it was run: (§1)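 Cryopreserved hepatocytes (viability >70%) at 0.5×10^6 cells/mL in Leibovitz buffer, preincubated 10 min at 37 °C, then compound at 10 μM (0.1% DMSO) in duplicate; buffer-only incubations as control. Samples at 0-60 min quenched in acetonitrile, analysed by LC-MS/MS; half-life and CLint (μL min^−1 10^−6 cells) from ln % remaining versus time.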
# [5] = tested on: hepatocytes; experiment: Hepatocyte stability assay, human; type: in vitro ADME; settings: 10 μM compound
# How it was run: as §1
# [6] = Hepatocyte stability assay, mouse; type: in vitro ADME; settings: mouse, cryopreserved hepatocytes, 10 μM compound
# How it was run: as §1
# [7] = tested on: hepatocytes; experiment: Hepatocyte stability assay, mouse; type: in vitro ADME; settings: 10 μM compound
# How it was run: as §1
# [8] = THP-1, differentiated THP-1 cells, LPS then Nigericin, Table 1
# [9] = +GSH, normalised to dimethyl fumarate high control, Table 3
# [10] = −GSH, normalised to dimethyl fumarate high control, Table 3
# [11] = Table 2, compounds of formula (II)
# [12] = THP-1, differentiated THP-1 cells, Table 2, compounds of formula (II)
# [13] = +GSH, Table 4, compounds of formula (II)
# [14] = −GSH, Table 4, compounds of formula (II)
"IC50 ([1]; LPS then Nigericin, Table 1) [µM]","IC50 [2, 8] [µM]","half-life at 10 μM ([4]; Table 5, read-out: T½) [min]",CIint ([5]; Table 5),"half-life at 10 μM ([6]; Table 5, read-out: T½) [min]",CIint ([7]; Table 5),Structure (SMILES),"IC50 [1, 11] [µM]","IC50 [2, 12] [µM]","EC50 [3, 13] [µM]","NRF2 activation Emax [3, 13]","EC50 [3, 14] [µM]","NRF2 activation Emax [3, 14]","half-life at 10 μM ([4]; Table 6, read-out: T½) [min]",CIint ([5]; Table 6),"half-life at 10 μM ([6]; Table 6, read-out: T½) [min]",CIint ([7]; Table 6),other results
2.5 to 6.1,< 2.5,30 to 100,++++ (++++ means <50),< 5,+ (+ means >277),"O=C(O)COC(=O)/C=C/C(=O)OC1CCCCCCC1 [Example 1, (E)-2-((4-(cyclooctyloxy)-4-oxobut-2-enoyl)oxy)acetic acid]",,,,,,,,,,,"EC50 ([3]; +GSH, Table 3): 6 to 20 µM; NRF2 activation Emax [3, 9]: ++ (++ means 100-149); EC50 ([3]; −GSH, Table 3): < 2 µM; NRF2 activation Emax [3, 10]: ++++ (++++ means 200-250%)"
,,,,,,"C[C@H](OC(=O)/C=C/C(=O)O)c1ccc(C(F)(F)F)cc1 [Intermediate 19, (S,E)-4-oxo-4-(1-(4-(trifluoromethyl)phenyl)ethoxy)but-2-enoic acid]",6 to 30,6 to 30,< 23,+++ (+++ means >114-150%),< 23,++++ (++++ means >150%),> 100,++++ (++++ means 5-15),5 to 29,++ (++ means >30-110),
9.3 to 14.3,6.2 to 9.2,30 to 100,++++ (++++ means <50),5 to 10,++ (++ means 200-277),"O=C(O)COC(=O)/C=C/C(=O)OC1CCCCC1 [Example 2, (E)-2-((4-(cyclohexyloxy)-4-oxobut-2-enoyl)oxy)acetic acid]",,,,,,,,,,,"EC50 ([3]; +GSH, Table 3): 20 to 100 µM; NRF2 activation Emax [3, 9]: + (+ means >17.1-99); EC50 ([3]; −GSH, Table 3): 2.1 to 6 µM; NRF2 activation Emax [3, 10]: ++++ (++++ means 200-250%)"
,,,,,,"O=C(O)/C=C/C(=O)OC1(c2ccc(C(F)(F)F)c(Cl)c2)CCC1 [Intermediate 26, (E)-4-(1-(3-chloro-4-(trifluoromethyl)phenyl)cyclobutoxy)-4-oxobut-2-enoic acid]",< 6,< 6,< 23,++ (++ means >87-114%),< 23,+++ (+++ means >114-150%),30 to 100,+++ (+++ means >15-30),30 to 100,++ (++ means >30-110),
,,,,,,"O=C(O)/C=C/C(=O)OC1(c2ccc(C(F)(F)F)cc2)CCC1 [Intermediate 3, (E)-4-oxo-4-(1-(4-(trifluoromethyl)phenyl)cyclobutoxy)but-2-enoic acid]",< 6,,< 23,+++ (+++ means >114-150%),< 23,+++ (+++ means >114-150%),> 100,++++ (++++ means 5-15),30 to 100,+++ (+++ means >15-30),"IC50 ([2]; differentiated THP-1 cells, Table 2, compounds of formula (II)): < 6 µM"
,,,,,,"O=C(O)/C=C/C(=O)OC1(c2cc(Cl)cc(Cl)c2)CCC1 [Intermediate 14, (E)-4-(1-(3,5-dichlorophenyl)cyclobutoxy)-4-oxobut-2-enoic acid]",6 to 30,< 6,< 23,++++ (++++ means >150%),< 23,++++ (++++ means >150%),> 100,++++ (++++ means 5-15),5 to 29,++ (++ means >30-110),
,,,,,,"O=C(O)/C=C/C(=O)OC1(c2ccc(C(F)(F)F)c(F)c2)CCC1 [Intermediate 16, (E)-4-(1-(3-fluoro-4-(trifluoromethyl)phenyl)cyclobutoxy)-4-oxobut-2-enoic acid]",< 6,< 6,< 23,+++ (+++ means >114-150%),< 23,++++ (++++ means >150%),> 100,+++ (+++ means >15-30),30 to 100,+++ (+++ means >15-30),
,,,,,,"O=C(O)/C=C/C(=O)OC1(c2ccc(OC(F)(F)F)cc2)CCC1 [Intermediate 30, (E)-4-oxo-4-(1-(4-(trifluoromethoxy)phenyl)cyclobutoxy)but-2-enoic acid]",< 6,6 to 30,23 to 48.4,++ (++ means >87-114%),< 23,+++ (+++ means >114-150%),> 100,++++ (++++ means 5-15),30 to 100,+++ (+++ means >15-30),
,,,,,,"C[C@@H](OC(=O)/C=C/C(=O)O)c1ccc(C(F)(F)F)cc1 [Intermediate 20, (R,E)-4-oxo-4-(1-(4-(trifluoromethyl)phenyl)ethoxy)but-2-enoic acid]",6 to 30,6 to 30,23 to 48.4,+ (+ means >50-<87%),< 23,+++ (+++ means >114-150%),> 100,++++ (++++ means 5-15),30 to 100,+++ (+++ means >15-30),
< 2.5,< 2.5,5 to 29,+++ (+++ means 50-149),< 5,+ (+ means >277),"O=C(O)CCOC(=O)/C=C/C(=O)OC1CCCCCCC1 [Example 3, (E)-3-((4-(Cyclooctyloxy)-4-oxobut-2-enoyl)oxy)propanoic acid]",,,,,,,,,,,"EC50 ([3]; +GSH, Table 3): 20 to 100 µM; NRF2 activation Emax [3, 9]: ++ (++ means 100-149); EC50 ([3]; −GSH, Table 3): < 2 µM; NRF2 activation Emax [3, 10]: ++++ (++++ means 200-250%)"
,,,,,,"O=C(O)/C=C/C(=O)OC(c1ccc(C(F)(F)F)cc1)C(F)(F)F (single isomer, unassigned) [Intermediate 44, (E)-4-oxo-4-(2,2,2-trifluoro-1-(4-(trifluoromethyl)phenyl)ethoxy)but-2-enoic acid]",< 6,< 6,,,,,5 to 29,++ (++ means >30-110),< 5,+ (+ means >110-277),
,,,,,,"O=C(O)/C=C/C(=O)OC1(c2ccc(C(F)(F)F)cc2)COC1 [Intermediate 18, (E)-4-oxo-4-((3-(4-(trifluoromethyl)phenyl)oxetan-3-yl)oxy)but-2-enoic acid]",6 to 30,6 to 30,,,,,30 to 100,++ (++ means >30-110),30 to 100,++ (++ means >30-110),

Structure (SMILES),"IC50 ([1]; LPS then Nigericin, Table 1) [µM]","IC50 [2, 8] [µM]","half-life at 10 μM ([4]; Table 5, read-out: T½) [min]",CIint ([5]; Table 5),"half-life at 10 μM ([6]; Table 5, read-out: T½) [min]",CIint ([7]; Table 5),"IC50 [1, 11] [µM]","IC50 [2, 12] [µM]","EC50 [3, 13] [µM]","NRF2 activation Emax [3, 13]","EC50 [3, 14] [µM]","NRF2 activation Emax [3, 14]","half-life at 10 μM ([4]; Table 6, read-out: T½) [min]",CIint ([5]; Table 6),"half-life at 10 μM ([6]; Table 6, read-out: T½) [min]",CIint ([7]; Table 6),other results
"O=C(O)COC(=O)/C=C/C(=O)OC1(c2ccc(C(F)(F)F)cc2)CCC1 [Example 15, (E)-2-((4-oxo-4-(1-(4-(trifluoromethyl)phenyl)cyclobutoxy)but-2-enoyl)oxy) acetic acid]",< 2.5,2.5 to 6.1,5 to 29,+++ (+++ means 50-149),< 5,+ (+ means >277),,,,,,,,,,,"EC50 ([3]; +GSH, Table 3): > 100 µM; NRF2 activation Emax [3, 9]: + (+ means >17.1-99); EC50 ([3]; −GSH, Table 3): 2.1 to 6 µM; NRF2 activation Emax [3, 10]: +++ (+++ means 150-199%)"
"O=C(O)CCOC(=O)/C=C/C(=O)OC1(c2ccc(C(F)(F)F)cc2)CCC1 [Example 16, (E)-3-(4-oxo-4-(1-(4-(trifluoromethyl)phenyl)cyclobutoxy)but-2-enoyloxy)propanoic acid]",2.5 to 6.1,< 2.5,5 to 29,+++ (+++ means 50-149),< 5,+ (+ means >277),,,,,,,,,,,
